Experimental data as given in patent publication EP0424538A1, “PYRIDINE DERIVATIVES AND THEIR SALTS, AND INSECTICIDAL/ACARICIDAL AGENT CONTAINING THE SAME AS ACTIVE INGREDIENT” (IDEMITSU KOSAN COMPANY LIMITED, priority 1989, dated 1990).

Tests used:
[1] = tested on: larvae (3-periods old) of tobiirounka; test: rice stalk immersion test, life or death of larvae; type: in vivo; conditions: 168 h; rice stalk immersed 1 minute in 500 ppm chemical solution; checked after 7 days at 25 °C; read-out: % dead larvae
Protocol: A stalk of rice cut in a length of 10 cm was immersed for 1 minutes in a chemical solution of one of the compounds obtained in the examples (excepting the compound of Example 4) in a concentration of 500 ppm and, after air-drying, put into a test tube containing water, in which larvae (3-periods old) of tobiirounka were released and kept standing in a thermostatic chamber at 25 °C with a cotton plug.
After 7 days of the testing, life or death of the above mentioned larvae was checked to find 100% dead larvae with each of the compounds obtained in the examples. Comparative Test Example.
In place of the compounds used in Test Example, the same test was undertaken by using: . [drawing 136]

[2] = tested on: cabbage maggot (Hylemya brassicae); conditions: from Chemical Abstracts and Journal of Economic Entomology, 41, 98, 1948; cited from earlier work

SMILES	mortality at 500 µg/mL [1]	activity against cabbage maggot [2]
CCCCc1cnccc1CC	92%	
CCCCC(CCCC)c1ccncc1 [4-(5-nonyl) pyridine]		no activity was recognized
CCCCCc1ccncc1 [4-n-amyl pyridine]		no activity was recognized
C=CCC(CC=C)c1ccncc1C [CA 85, 32850y, 1976]	90%	
CC(C)(C)c1ccncc1C(C)(C)C [CA 100, 155997n, 1984]	92%	
Cc1cnccc1C(C)CCC1CCCCC1 (stereo not drawn) [CA 109, 6426j, 1988]	98%	
